Data taken from publication PMC4301998 (Bioorganic & medicinal chemistry, 2014).
Like-named read-outs stand apart in the source and are kept apart here. Values belong to the compound of their own block, whether it stands above or below them.

Legend:
[1] = system: nine human cancer cell lines and three non-cancerous cell lines; additional colon cancer cells; assay: MTT cell survival assay, statements over several cell lines; type: cell-based; details: for IC50: Homo sapiens
[2] = system: HCT-116 colon cancer cells; assay: MTT cell survival assay, HCT-116; type: cell-based; details: Homo sapiens, HCT-116, read-out: IC50 ± SD, HCT-116
HEK293/ABCB1 cells = assay: MTT cytotoxicity in ABCB1-overexpressing cells; type: cell-based, human; details: HEK293/ABCB1 vs HEK293/pcDNA3.1, MTT
[3] = system: HEK293/R2 (ABCG2-overexpressing cells); assay: MTT cytotoxicity in ABCG2-overexpressing cells; type: cell-based, human; details: HEK293/R2 vs HEK293/pcDNA3.1, MTT
HCT-116 cells = assay: Chromosomal DNA fragmentation assay; type: cell-based, human; details: 2.5 μM, 6 hr
[4] = system: HCT-116, HCT-15, and HEK293 cells; assay: Morphological analysis by microscopy; type: cell-based, human; details: 0, 0.5, 2, or 10 μM, 68 hrs of treatment; HCT-116, HCT-15, HEK293
human PXR = target: T1, human PXR (Homo sapiens, UniProt O75469); assay: PXR transactivation assay; details: HepG2 reporter gene assay, 24 hr treatment, vs DMSO; IND-2 at 1 or 10 μM
T1 sequence (O75469 1-434): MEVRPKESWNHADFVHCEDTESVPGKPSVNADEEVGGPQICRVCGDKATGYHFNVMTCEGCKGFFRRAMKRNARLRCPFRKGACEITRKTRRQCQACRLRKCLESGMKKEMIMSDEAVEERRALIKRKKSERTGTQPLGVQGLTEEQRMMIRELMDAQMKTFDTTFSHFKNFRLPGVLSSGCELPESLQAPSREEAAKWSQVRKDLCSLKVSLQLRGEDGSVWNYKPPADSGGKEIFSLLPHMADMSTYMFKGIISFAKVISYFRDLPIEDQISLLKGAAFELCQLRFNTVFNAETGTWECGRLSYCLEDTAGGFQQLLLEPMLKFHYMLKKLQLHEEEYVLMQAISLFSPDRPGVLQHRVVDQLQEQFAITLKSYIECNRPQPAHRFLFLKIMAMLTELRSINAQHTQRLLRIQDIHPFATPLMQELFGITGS

HepG2 cells = details: 24 hr, CellTiter-Glo
[5] = system: S1-M1-80 cells (G482 mutant ABCG2-overexpressing); assay: MTT cytotoxicity in drug-resistant colon cancer cells; type: cell-based, human; details: S1-M1-80 vs S1, MTT; p < 0.001

SMILES: Cc1cc(=O)n2nc3nc4ccccc4cc3c2[nH]1 [IND-1, 2-Methylpyrimido[1”,2”:1,5]pyrazolo[3,4-b]quinoline-4(1H)-one]
IC50 ([1]; read-out: IC50 on the tested cells): > 40000 nM

PXR transactivation of CYP3A4 promoter activity (human PXR): did not affect PXR transactivation
SMILES: Cc1cc(Cl)n2nc3nc4ccccc4cc3c2n1 [IND-2, 4-Chloro-2-methyl pyrimido[1“,2”:1,5]pyrazolo[3,4-b]quinoline]
IC50 [2]: 634 ± 120 nM
IC50 ([1]; DU-145, read-out: IC50 values against prostate cancer cells): 800 to 1200 nM
IC50 ([1]; read-out: IC50 values on colon cancer cells): < 1000 nM
selectivity for inhibition of colon cancer cells relative to HEK293 cells ([1]; colon cancer cells vs HEK293): 10-15 fold
selectivity relative to NIH/3T3 mouse fibroblast cells and MDCK cells ([1]; colon cancer cells vs NIH/3T3 and MDCK): 20-40 fold
selectivity for colon cancer cells relative to other cancer cells ([1]; vs breast, ovarian, and hepatocellular carcinoma cells): 10-30 fold
resistance of ABCB1-overexpressing cells (HEK293/ABCB1 cells): no substantial resistance
resistance of ABCG2-overexpressing cells [3]: no substantial resistance
fragmentation of chromosomal DNA (HCT-116 cells): led to fragmentation of chromosomal DNA
morphological changes of cells [4]: morphological changes
HepG2 cell viability (cytotoxicity) (HepG2 cells; 1 μM): non-cytotoxic
HepG2 cell viability (cytotoxicity) (HepG2 cells; 10 μM): marginally cytotoxic

SMILES: Cc1cc(N(C)C)n2nc3nc4ccccc4cc3c2n1 [IND-3, N,N,2-Trimethyl benzopyrido[2’,3’:3,4]pyrazolo[1,5-a]pyrimidin-4-amine]
IC50 ([1]; read-out: IC50 values against ovarian and breast cancer cells): 44000 to 50000 nM

SMILES: CCc1c2c(nc3ccc(O)cc13)-c1cc3c(c(=O)n1C2)COC(=O)[C@]3(O)CC [SN-38]
resistance of S1-M1-80 cells to the drug [5]: significant resistance

SMILES: CC[C@@]1(O)C(=O)OCc2c1cc1n(c2=O)Cc2cc3c(CN(C)C)c(O)ccc3nc2-1 [topotecan]
resistance of S1-M1-80 cells to the drug [5]: significant resistance
